Measured values: ChEMBL document CHEMBL6153094, “Rationally designed highly amphipathic antimicrobial peptides demonstrating superior bacterial selectivity relative to the corresponding α-helix peptide” (Eur J Med Chem, 2025)
Calls of active or inactive are those of the source. The calls are words filed in the database; no cut-off is given here.

How the values were obtained:
Pseudomonas aeruginosa [1] = test: Antimicrobial activity against multi-drug resistant Pseudomonas aeruginosa clinical isolate 124 assessed as concentration required to eliminate 90% bacteria incubated for 18 hrs by broth-microdilution method; format: functional
Klebsiella pneumoniae [2] = test: Antibacterial activity against Klebsiella pneumoniae ATCC 700603 infected in male Balb/c mouse model of pneumonia assessed as increase in alveoli expansion in lung at 2.5 mg/kg, ip administered at 4 and 12 hrs post-infected and measured after 24 hrs by H and E staining based analysis; format: functional, organism-based; conditions: time 20.0 hrs
Pseudomonas aeruginosa [3] = test: Induction of morphological changes in Pseudomonas aeruginosa ATCC 27853 assessed as cellular fragmentation at 2 times of MIC incubated for 30 to 120 mins by SEM analysis; format: functional, organism-based; conditions: time 30-120 min
Klebsiella pneumoniae [4] = test: Antimicrobial activity against Klebsiella pneumoniae ATCC 700603 assessed as inhibition of visible bacterial growth incubated for 18 hrs by broth microdilution method; format: functional
Staphylococcus aureus [5] = test: (§1) Antibacterial activity against methicillin-resistant Staphylococcus aureus ATCC 33591 infected in male Balb/c mouse model of full thickness skin wound assessed as reduction in bacterial load in skin at 1 mg/ml pre-infected with bacteria for 1 hrs followed by compound administration at 1,12 and 36 hrs post infection and measured 60 hrs post infection by agar plate method; format: functional, organism-based; conditions: time 59.0 hrs
Pseudomonas aeruginosa [6] = test: Antimicrobial activity against multi-drug resistant Pseudomonas aeruginosa clinical isolate 119 assessed as concentration required to eliminate 90% bacteria incubated for 18 hrs by broth-microdilution method; format: functional
Staphylococcus aureus [7] = test: as §1, with “decrease” for “reduction”, “cell necrosis” for “bacterial load”, “after 10 days” for “60 hrs post infection”, “H and E staining based analysis” for “agar plate method”; format: functional, organism-based; conditions: time 10.0 day
Staphylococcus aureus [8] = test: Bactericidal activity against Staphylococcus aureus ATCC 25923 assessed as bacterial eradication at 1 times of MIC measured within 90 mins by time-kill kinetics assay; format: functional, organism-based
Staphylococcus aureus [9] = test: Antibiofilm activity in Staphylococcus aureus ATCC 25923 assessed as inhibition of biofilm formation at 4 times of MIC incubated for 24 hrs by crystal violet staining based analysis relative to control; format: functional
Staphylococcus aureus [10] = test: Resistance fold, ratio of MIC for Staphylococcus aureus ATCC 25923 measured after 20 passages in presence of gentamicin to MIC for Staphylococcus aureus ATCC 25923 measured immediately in presence of gentamicin; format: functional
Staphylococcus aureus [11] = test: Induction of morphological changes in Staphylococcus aureus ATCC 25923 assessed as membrane disruption at 2 times of MIC incubated for 30 to 120 mins by SEM analysis; format: functional, organism-based; conditions: time 30-120 min
Pseudomonas aeruginosa [12] = test: Induction of morphological changes in Pseudomonas aeruginosa ATCC 27853 assessed as membrane disruption at 2 times of MIC incubated for 30 to 120 mins by SEM analysis; format: functional, organism-based; conditions: time 30-120 min
[13] = Hemolytic activity in mouse red blood cells assessed as hemolysis at 256 uM incubated for 1 hrs by absorbance based assay relative to control; format: toxicity, cell-based, Erythrocyte; conditions: read-out: Activity
Pseudomonas aeruginosa [14] = test: Antibacterial activity against Pseudomonas aeruginosa ATCC 27853 assessed as fold change in MIC incubated for 18 hrs in presence of 5% serum by broth microdilution method; format: functional
Klebsiella pneumoniae [15] = test: Antibacterial activity against Klebsiella pneumoniae ATCC 700603 infected in male Balb/c mouse model of pneumonia assessed as decrease in inflammatory cell infiltration in […] at 2.5 mg/kg, ip administered at 4 and 12 hrs post-infected and measured after 24 hrs by H and E staining based analysis; format: functional, organism-based; conditions: time 20.0 hrs
Staphylococcus aureus [16] = test: Bactericidal activity against Staphylococcus aureus ATCC 25923 at 2 times of MIC incubated for 18 hrs in presence of 20 microg/ml of chymotrypsin by absorbance based assay; format: functional, organism-based
Cell membrane [17] = test: Disruption of outer membrane integrity in Pseudomonas aeruginosa ATCC 27853 assessed as increase in fluorescence intensity at 1 times of MIC measured for 12 mins by NPN uptake assay; format: subcellular
Staphylococcus aureus [18] = test: Antibacterial activity against Staphylococcus aureus ATCC 25923 assessed as fold change in MIC incubated for 18 hrs in presence of 5% serum by broth microdilution method; format: functional
DNA = test: Binding affinity to Pseudomonas aeruginosa ATCC 27853 DNA at 8 times of MIC measured after 30 mins by agarose gel electrophoresis; format: nucleic-acid assay
Staphylococcus aureus [19] = test: Induction of morphological changes in Staphylococcus aureus ATCC 25923 assessed as cell adhesion at 2 times of MIC incubated for 30 to 120 mins by SEM analysis; format: functional, organism-based; conditions: time 30-120 min
Pseudomonas aeruginosa [20] = test: Antibacterial activity against Pseudomonas aeruginosa ATCC 27853 assessed as fold change in MIC incubated for 18 hrs in presence of KCl by Mueller-Hinton broth based assay; format: functional
Staphylococcus aureus [21] = test: Antibacterial activity against Staphylococcus aureus ATCC 25923 incubated for 18 hrs in presence of MgCl2 by Mueller-Hinton broth based assay; format: functional, organism-based
Escherichia coli = test: Antimicrobial activity against multi-drug resistant Escherichia coli clinical isolate 804 assessed as concentration required to eliminate 90% bacteria incubated for 18 hrs by broth-microdilution method; format: functional
Cell membrane [22] = test: Disruption of outer membrane integrity in Pseudomonas aeruginosa ATCC 27853 assessed as increase in fluorescence intensity at 2 times of MIC measured for 12 mins by NPN uptake assay; format: subcellular
Staphylococcus aureus [23] = test: Antimicrobial activity against methicillin-drug resistant Staphylococcus aureus clinical isolate 48 assessed as concentration required to eliminate 90% bacteria incubated for 18 hrs by broth-microdilution method; format: functional
[24] = tested on: Staphylococcus epidermidis; test: Antimicrobial activity against Staphylococcus epidermidis ATCC 12228 assessed as inhibition of visible bacterial growth incubated for 18 hrs by broth-dilution method; format: functional
Staphylococcus aureus [25] = test: Induction of morphological changes in Staphylococcus aureus ATCC 25923 assessed as cellular fragmentation at 2 times of MIC incubated for 30 to 120 mins by SEM analysis; format: functional, organism-based; conditions: time 30-120 min
Pseudomonas aeruginosa [26] = test: Antibacterial activity against Pseudomonas aeruginosa ATCC 27853 assessed as fold change in MIC incubated for 18 hrs in presence of 2.5% serum by broth microdilution method; format: functional

H-RRWFRRWRRWFR-NH2
EC90 (Pseudomonas aeruginosa [1]): 0.78 µM | Activity (Klebsiella pneumoniae [2]): Active | Activity (Pseudomonas aeruginosa [3]): Active | MIC (Klebsiella pneumoniae [4]): 4 µM | Activity (Staphylococcus aureus [5]): Active | EC90 (Pseudomonas aeruginosa [6]): 0.566 µM | Activity (Staphylococcus aureus [7]): Active | Activity (Staphylococcus aureus [8]): Active | inhibition (INH) (Staphylococcus aureus [9]): ~75% | fold change (FC) (Staphylococcus aureus [10]): <=2 | Activity (Staphylococcus aureus [11]): Active | Activity (Pseudomonas aeruginosa [12]): Active | hemolysis at 1 h, 256 µM [13]: < 10% | fold change (FC) (Pseudomonas aeruginosa [14]): 64 | Activity (Klebsiella pneumoniae [15]): Active | Activity (Staphylococcus aureus [16]): inactive | Activity (Cell membrane [17]): Active | fold change (FC) (Staphylococcus aureus [18]): 128 | Activity (DNA): Active | Activity (Staphylococcus aureus [19]): Active | fold change (FC) (Pseudomonas aeruginosa [20]): 2 | Activity (Staphylococcus aureus [21]): Active | EC90 (Escherichia coli): 5.42 µM | Activity (Cell membrane [22]): Active | EC90 (Staphylococcus aureus [23]): 2.78 µM | MIC [24]: 1 µM | Activity (Staphylococcus aureus [25]): Active | fold change (FC) (Pseudomonas aeruginosa [26]): 32
